System: Magnaporthe grisea (Pyricularia oryzae—PYRIOR)
Experiment: microbe, parasite or virus in culture
Format: cell-based
Conditions: Pyricularia oryzae, read-out: PYRIOR in vitro Growth Inhibition
Compound `COc1ccnc(C(=O)Nc2ccc(Oc3ccnc(C(F)(F)F)c3)cc2)c1O` [Compound 465] has an inhibition at 25 ppm greater than 80%. Work on `O=C(NCCc1ccc(Cl)cc1)c1cccnc1O` [Compound 518] yielded an inhibition at 25 ppm of less than 80%. Compound `Cc1nc(O)c(C(=O)N[C@H]2COC(=O)[C@H](Cc3ccccc3)[C@@H](OC(=O)C(C)C)[C@H](C)OC2=O)cc1Cl` [Compound 531] has an inhibition at 25 ppm of less than 80%.

System: Phytophthora infestans (PHYTIN)
Experiment: microbe, parasite or virus in culture
Format: cell-based
Conditions: Phytophthora infestans, read-out: PHYTIN in vitro Growth Inhibition
Work on `COc1ccnc(C(=O)Nc2ccc(Oc3ccnc(C(F)(F)F)c3)cc2)c1O` [Compound 465] yielded an inhibition at 25 ppm of less than 80%. For `O=C(NCCc1ccc(Cl)cc1)c1cccnc1O` [Compound 518], the inhibition at 25 ppm was less than 80%. In the case of `Cc1nc(O)c(C(=O)N[C@H]2COC(=O)[C@H](Cc3ccccc3)[C@@H](OC(=O)C(C)C)[C@H](C)OC2=O)cc1Cl` [Compound 531], the inhibition at 25 ppm is reported as less than 80%.

System: Stagonospora nodorum (Leptosphaeria nodorum—LEPTNO)
Experiment: In vitro fungal growth inhibition, Stagonospora nodorum (LEPTNO)
Format: cell-based
Conditions: Leptosphaeria; 25 ppm in the growth medium; read-out: LEPTNO in vitro Growth Inhibition
Compound `COc1ccnc(C(=O)Nc2ccc(Oc3ccnc(C(F)(F)F)c3)cc2)c1O` [Compound 465] has an inhibition at 25 ppm of less than 80%. `O=C(NCCc1ccc(Cl)cc1)c1cccnc1O` [Compound 518] showed an inhibition at 25 ppm of less than 80%. For `Cc1nc(O)c(C(=O)N[C@H]2COC(=O)[C@H](Cc3ccccc3)[C@@H](OC(=O)C(C)C)[C@H](C)OC2=O)cc1Cl` [Compound 531], the inhibition at 25 ppm was less than 80%.

System: Septoria tritici—SEPTTR
Experiment: Leaf Blotch of Wheat, in vivo whole plant, 24 Hour Protectant
Conditions: Zymoseptoria tritici, 24 h, wheat plants sprayed at 100 ppm, inoculated after 24 hours; control of fungal infection vs untreated plants; read-out: SEPTTR in vivo 1 Day Protectant
With `COc1ccnc(C(=O)Nc2ccc(Oc3ccnc(C(F)(F)F)c3)cc2)c1O` [Compound 465] the pest or weed control at 100 ppm was 25 to 74%. In the case of `O=C(NCCc1ccc(Cl)cc1)c1cccnc1O` [Compound 518], the pest or weed control at 100 ppm is reported as less than 25%. `Cc1nc(O)c(C(=O)N[C@H]2COC(=O)[C@H](Cc3ccccc3)[C@@H](OC(=O)C(C)C)[C@H](C)OC2=O)cc1Cl` [Compound 531] showed a pest or weed control at 100 ppm of 25 to 74%.

System: Leptosphaeria nodorum—LEPTNO
Experiment: Glume Blotch of Wheat, in vivo whole plant, 24 Hour Protectant
Conditions: Leptosphaeria; wheat plants sprayed at 100 ppm, inoculated after 24 hours; control of fungal infection vs untreated plants; read-out: LEPTNO in vivo 1 Day Protectant
`COc1ccnc(C(=O)Nc2ccc(Oc3ccnc(C(F)(F)F)c3)cc2)c1O` [Compound 465] gave a pest or weed control at 100 ppm of 25 to 74%. With `O=C(NCCc1ccc(Cl)cc1)c1cccnc1O` [Compound 518] the pest or weed control at 100 ppm was less than 25%. In the case of `Cc1nc(O)c(C(=O)N[C@H]2COC(=O)[C@H](Cc3ccccc3)[C@@H](OC(=O)C(C)C)[C@H](C)OC2=O)cc1Cl` [Compound 531], the pest or weed control at 100 ppm is reported as 25 to 74%.

System: Rhizoctonia solani (RHIZSO)
Experiment: microbe, parasite or virus in culture
Format: cell-based
Conditions: Rhizoctonia solani, read-out: RHIZSO in vitro Growth Inhibition
In the case of `COc1ccnc(C(=O)Nc2ccc(Oc3ccnc(C(F)(F)F)c3)cc2)c1O` [Compound 465], the inhibition at 25 ppm is reported as less than 80%. Compound `O=C(NCCc1ccc(Cl)cc1)c1cccnc1O` [Compound 518] has an inhibition at 25 ppm of less than 80%. `Cc1nc(O)c(C(=O)N[C@H]2COC(=O)[C@H](Cc3ccccc3)[C@@H](OC(=O)C(C)C)[C@H](C)OC2=O)cc1Cl` [Compound 531] gave an inhibition at 25 ppm of less than 80%.

System: not given
Experiment: not given
Conditions: not given
Work on `COc1ccnc(C(=O)Nc2ccc(Oc3ccnc(C(F)(F)F)c3)cc2)c1O` [Compound 465] yielded a melting point of 160 to 162 °C. In the case of `O=C(NCCc1ccc(Cl)cc1)c1cccnc1O` [Compound 518], the melting point is reported as 219 to 221 °C. `Cc1nc(O)c(C(=O)N[C@H]2COC(=O)[C@H](Cc3ccccc3)[C@@H](OC(=O)C(C)C)[C@H](C)OC2=O)cc1Cl` [Compound 531] showed a melting point of 103 to 108 °C.

System: Ustilago maydis (USTIMA)
Experiment: microbe, parasite or virus in culture
Format: cell-based
Conditions: Mycosarcoma maydis, read-out: USTIMA in vitro Growth Inhibition
For `COc1ccnc(C(=O)Nc2ccc(Oc3ccnc(C(F)(F)F)c3)cc2)c1O` [Compound 465], the inhibition at 25 ppm was less than 80%. Work on `O=C(NCCc1ccc(Cl)cc1)c1cccnc1O` [Compound 518] yielded an inhibition at 25 ppm of less than 80%. `Cc1nc(O)c(C(=O)N[C@H]2COC(=O)[C@H](Cc3ccccc3)[C@@H](OC(=O)C(C)C)[C@H](C)OC2=O)cc1Cl` [Compound 531] gave an inhibition at 25 ppm of less than 80%.

System: Puccinia recondita—PUCCRT
Experiment: Brown Rust of Wheat, in vivo whole plant, 24 Hour Protectant
Conditions: Puccinia; wheat plants sprayed at 100 ppm, inoculated after 24 hours; control of fungal infection vs untreated plants; read-out: PUCCRT in vivo 1 Day Protectant
For `COc1ccnc(C(=O)Nc2ccc(Oc3ccnc(C(F)(F)F)c3)cc2)c1O` [Compound 465], the pest or weed control at 100 ppm was less than 25%. Work on `O=C(NCCc1ccc(Cl)cc1)c1cccnc1O` [Compound 518] yielded a pest or weed control at 100 ppm of less than 25%. Work on `Cc1nc(O)c(C(=O)N[C@H]2COC(=O)[C@H](Cc3ccccc3)[C@@H](OC(=O)C(C)C)[C@H](C)OC2=O)cc1Cl` [Compound 531] yielded a pest or weed control at 100 ppm of less than 25%.

System: Phytophthora infestans—PHYTIN
Experiment: whole plant or invertebrate
Format: in vivo
Conditions: Phytophthora, in Solanum lycopersicum, 24 h, read-out: PHYTIN in vivo 1 Day Protectant
Compound `COc1ccnc(C(=O)Nc2ccc(Oc3ccnc(C(F)(F)F)c3)cc2)c1O` [Compound 465] has a pest or weed control at 100 ppm of less than 25%. Work on `O=C(NCCc1ccc(Cl)cc1)c1cccnc1O` [Compound 518] yielded a pest or weed control at 100 ppm of 25 to 74%. With `Cc1nc(O)c(C(=O)N[C@H]2COC(=O)[C@H](Cc3ccccc3)[C@@H](OC(=O)C(C)C)[C@H](C)OC2=O)cc1Cl` [Compound 531] the pest or weed control at 100 ppm was less than 25%.

System: Erysiphe graminis—ERYSGT
Experiment: Powdery Mildew of Wheat, in vivo whole plant, 24 Hour Protectant
Conditions: Erysiphe; wheat plants sprayed at 100 ppm, inoculated after 24 hours; control of fungal infection vs untreated plants; read-out: ERYSGT in vivo 1 Day Protectant
`COc1ccnc(C(=O)Nc2ccc(Oc3ccnc(C(F)(F)F)c3)cc2)c1O` [Compound 465] showed a pest or weed control at 100 ppm of less than 25%. Work on `O=C(NCCc1ccc(Cl)cc1)c1cccnc1O` [Compound 518] yielded a pest or weed control at 100 ppm of less than 25%. With `Cc1nc(O)c(C(=O)N[C@H]2COC(=O)[C@H](Cc3ccccc3)[C@@H](OC(=O)C(C)C)[C@H](C)OC2=O)cc1Cl` [Compound 531] the pest or weed control at 100 ppm was 25 to 74%.

System: Mycosphaerella graminicola (Septoria tritici—SEPTTR)
Experiment: In vitro fungal growth inhibition, Mycosphaerella graminicola (SEPTTR)
Format: cell-based
Conditions: Zymoseptoria tritici; 25 ppm in the growth medium; read-out: SEPTTR in vitro Growth Inhibition
`COc1ccnc(C(=O)Nc2ccc(Oc3ccnc(C(F)(F)F)c3)cc2)c1O` [Compound 465] gave an inhibition at 25 ppm of less than 80%. For `O=C(NCCc1ccc(Cl)cc1)c1cccnc1O` [Compound 518], the inhibition at 25 ppm was less than 80%. `Cc1nc(O)c(C(=O)N[C@H]2COC(=O)[C@H](Cc3ccccc3)[C@@H](OC(=O)C(C)C)[C@H](C)OC2=O)cc1Cl` [Compound 531] gave an inhibition at 25 ppm of less than 80%.

Source: patent US6706740B2, “Fungicidal heterocyclic aromatic amides and their compositions, methods of use and preparation” (Dow AgroSciences LLC, priority 1999, dated 2004)
